From patent US9554573B2, “Binary insecticidal or pesticidal mixture” (BAYER CROPSCIENCE AKTIENGESELLSCHAFT, priority 2013, dated 2017)

Tests used:
Spodoptera frugiperda = Spodoptera frugiperda spray test (maize leaf sections); format: in vivo; conditions: 144 h, after 6 d, read-out: Efficacy in % after 6 d (mortality)
Procedure: Solvent: 78.0 parts by weight acetone
• 1.5 parts by weight dimethylformamide Emulsifier: 0.5 parts by weight alkylarylpolyglycolether
(§1) To produce a suitable preparation of the active compound, 1 part by weight of active compound is mixed with the stated amount of solvent and emulsifier, and the concentrate is diluted with emulsifier-containing water to the desired concentration. To produce a suitable preparation of a spore suspension the spores are diluted with emulsifier—containing water to the desired concentration.
Maize (Zea mais) leaf sections are sprayed with a preparation of the active ingredient of the desired concentration. Once dry, the leaf sections are infested with fall armyworm larvae (Spodoptera frugiperda).
After the specified period of time, mortality in % is determined. 100% means all caterpillars have been killed and 0% means none of the caterpillars have been killed. The mortality values determined thus are recalculated using the Colby-formula (see sheet 1).

Phaedon cochleariae = Phaedon cochleariae spray test (Chinese cabbage leaf disks); format: in vivo; conditions: foliar, 144 h, after 6 d, read-out: Efficacy in % after 6 d (mortality)
Procedure: Solvent: 78.0 parts by weight of acetone
• 1.5 parts by weight of dimethylformamide Emulsifier: 0.5 parts by weight of alkylaryl polyglycolether
as §1, with “of” for “of the”, “emulsifier—containing” for “emulsifier-containing”
Chinese cabbage (Brassica pekinensis) leaf-disks are sprayed with a preparation of the active ingredient of the desired concentration. Once dry, the leaf disks are infested with mustard beetle larvae (Phaedon cochleariae).
After the specified period of time, mortality in % is determined. 100% means all beetle larvae have been killed and 0% means none of the beetle larvae have been killed. The mortality values determined thus are recalculated using the Colby-formula (see sheet 1).

Cc1cc(C(F)(C(F)(F)F)C(F)(F)F)ccc1NC(=O)c1cccc(Cl)c1C(=O)NC(C)(C)C#N [(I-5)]
mortality at 0.25 g/ha (Spodoptera frugiperda; 0.25 g ai/ha): 0%
mortality at 0.8 g/ha (Spodoptera frugiperda; 0.8 g ai/ha): 33%
mortality at 3 g/ha (Spodoptera frugiperda; 3 g ai/ha): 33%
mortality at 2.5 g/ha (Phaedon cochleariae; 2.5 g ai/ha): 0%
mortality at 12 g/ha (Phaedon cochleariae; 12 g ai/ha): 0%
